Laboratory results: patent US20130323361A1, “NUTRITIONAL COMPOSITIONS INCLUDING EXOGENOUS VITAMIN K2” (NESTEC S.A., priority 2009, published 2013)

Columns and labels:
Type in all cases: in vivo, Male Sprague-Dawley rats
IKKα/β (Ser176/180) = assay: Immunoblot of phosphorylated IKKα/β in gastrocnemius muscle of LPS-challenged rats; conditions: 25 or 50 microgram oral daily over 7 days, LPS 0.5 mg/kg IP, compared to LPS treatment
Method: (§1) Male Sprague-Dawley rats (175 g) are kept on a 12-h light:dark cycle with food (Harlan-Teklad Rodent Chow, Madison, Wis.) and water provided freely. Animals are administered daily doses of vitamin K2 (MK-7) or saline (control) via oral gavage over 7 days. Stock solutions of vitamin K2 are prepared containing 3.5 g/L HCO-60 and 1 g/L of […] in buffer A (0.15 M NaCl, 0.05 M Tris-HCl, pH 7.5). The K2 is dissolved by sonication during five pulses of 5 set with an amplitude of 6 pm. Solutions thus obtained are clear, homogeneous, and stable. […]
(§2) Analysis of mTOR Signaling to elFs—Gastrocnemius muscles are weighed and homogenized in 7 volumes of buffer containing 20 mM HEPES (pH 7.4), 100 mM potassium chloride, 0.2 mM EDTA, 2 mM EGTA, 50 mM sodium fluoride, 50 mM glycerophosphate, 0.1 mM phenylmethylsulfonyl fluoride, 1 mM benzamidine, 1 mM dithiothreitol (DTT), and 0.5 mM sodium vanadate. […] Samples are analyzed for the phosphorylation status of 4E-BP 1 (Thr37) and ribosomal protein S6 (Ser 235/236), the anti-phosphospecific antibodies were obtained from Cell Signaling Technology, Beverly, Mass. Additionally, samples are analyzed for phosphorylated IKKα/β (Ser176/180; Cell Signaling Technology) and phosphorylated p65 (Ser536; Cell Signaling Technology).

[1] = test system: ribosomal protein S6 (Ser 235/236); assay: mTOR signaling: ribosomal protein S6 phosphorylation in gastrocnemius muscle of LPS-challenged rats; conditions: 25 or 50 microgram oral daily over 7 days, LPS 0.5 mg/kg IP, compared to LPS treatment
Method: as §1, §2

plasma TNF-a = assay: Plasma TNF-a in LPS-challenged rats; conditions: 25 or 50 microgram oral daily over 7 days, LPS 0.5 mg/kg IP 2 hours after last dose, sacrifice four hours later, compared to LPS treated animals
Method: (§3) Male Sprague-Dawley rats (175 g) are kept on a 12-h light:dark cycle with food (Harlan-Teklad Rodent Chow, Madison, Wis.) and water provided freely. Animals are administered daily doses of vitamin K2 (MK-7) or saline (control) via oral gavage over 7 days. Stock solutions of vitamin K2 are prepared containing 3.5 g/L HCO-60 and 1 g/L of […] in buffer A (0.15 M NaCl, 0.05 M Tris-HCl, pH 7.5). The K2 is dissolved by sonication during five pulses of 5 set with an amplitude of 6 pm. Solutions thus obtained are clear, homogeneous, and stable. Shortly before vitamin K administration the stock solutions are diluted five times with buffer A, leading to a final HCO-60 concentration of 0.7 g/L. Further dilutions (as required) are made with 0.7 g/L HCO-60 in buffer A. Each dilution step is followed by sonication as described above. In all cases vitamin K2 is administered to the rats in 0.5 mL samples, with either 25 or 50 microgram oral doses.
On the final day (Day 7), rodents are administered vitamin K2 and 2 hours later were given an IP dose of LPS (Escherichia coli serotype 0111:B4, L2630, Sigma) intraperitoneally (0.5 mg/kg of body weight). Four hours later animals are sacrificed.

4E-BP 1 (Thr37) = assay: mTOR signaling: 4E-BP1 phosphorylation in gastrocnemius muscle of LPS-challenged rats; conditions: 25 or 50 microgram oral daily over 7 days, LPS 0.5 mg/kg IP, compared to LPS treatment
Method: as §1, §2

[2] = test system: total mixed muscle protein; assay: Measurement of protein synthesis (fractional rate Ks, radioactive phenylalanine incorporation) in LPS-challenged rats; conditions: 25 or 50 microgram oral daily over 7 days, LPS 0.5 mg/kg IP, under conditions of inflammatory sepsis, compared to LPS treatment
Method: as §3, with “doses. […]” for “doses.”
Measurement of Protein Synthesis—The fractional rate of synthesis (Ks) is estimated from the rate of incorporation of radioactive phenylalanine into total mixed muscle protein using the specific radioactivity of serum phenylalanine as representative of the precursor pool. […]

NFαB p65 = assay: Immunoblot of phosphorylated p65 in gastrocnemius muscle of LPS-challenged rats; conditions: 25 or 50 microgram oral daily over 7 days, LPS 0.5 mg/kg IP, compared to LPS treatment
Method: as §1, §2

CC(C)=CCC/C(C)=C/CC/C(C)=C/CC/C(C)=C/CC/C(C)=C/CC/C(C)=C/CC/C(C)=C/CC1=C(C)C(=O)c2ccccc2C1=O [K2, vitamin K2 (MK-7)]
drop in phosphorlyation for IKKα/β (IKKα/β (Ser176/180)): significant blunting of the drop in phosphorlyation
decrease in ribosomal protein S6 phosphorylation [1]: abrogates the decrease
rise of plasma TNF-a (plasma TNF-a): significant decrease in the rise
decrease in 4E-BPI(Thr-37) phosphorylation (4E-BP 1 (Thr37)): abrogates the decrease
fractional rate of mixed muscle protein synthesis [2]: greater preservation
NFαB p65 induction (NFαB p65): significant blunting
